Measured values taken from patent US4980372A, “Benzoylaminophenoxybutanoic acid derivatives” (Ono Pharmaceutical Co., Ltd., priority 1987, dated 1990).

Target: 5α-reductase
Experiment: 5α-reductase inhibitory activity in vitro
Assay type: biochemical, rat
Details: male rats' prostate enzyme, [4-C14]-testosterone, NADPH, 60 mins at 37° C., pH 7.4
Procedure: 5α-reductase inhibitory activity in vitro
Inhibitory activity on 5α-reductase in vitro was measured by the following test system.
The test was carried out by making reference to the method of J. Shimazaki et al [See Endocrinical. Japon., 18, 179 (1971)].
Male rats' prostate (4 g) was homogenized with its triple volume of 0.1M HEPES buffer (pH 7.4) including 0.25M cane sugar, and was centrifuged at 3000 r.p.m. for 10 mins.
The precipitate was suspended into the buffer solution described above (10 ml), and the suspension was centrifuged at 3000 r.p.m. for 5 mins. The resulting precipitated was suspended in the buffer solution (3 ml) described above and was used as a sauce of enzyme.
A reaction mixture (total volume 0.1 ml) of [4-C^14 ]-testosterone (1.5 n mol, 1.5×10^5 cpm) NADPH (0.5 μmol) enzyme solution (0.03 ml) described above and several kinds of concentration of the compounds in the present invention was incubated for 60 mins at 37° C. Enzyme reaction was quenched by addition of a mixture (1.0 ml) of diethyl ether, petroleum ether and acetic acid (80:20:1), and the mixture was centrifuged at 3000 r.p.m. for 5 mins. The supernatant (200 μl) was spotted on silica gel thin layer plate. The spot on the plate was developed with a mixture of chloroform, methanol and acetic acid (99:0.8:0.2). Radioactivity of dihydrotestosterone generated on the plate was measured by TLC scanner of radio-autography and inhibitory ratio was calculated.

Cc1ccccc1COc1ccc(C(=O)Nc2ccccc2OCCCC(=O)O)c(C)c1C [2(b), 4-[2-[4-(2-methylbenzyloxy)-2,3-dimethylbenzoylamino]phenoxy]butanoic acid]
IC50: 380 nM

Cc1c(OCc2ccc(CC3CCC3)cc2)ccc(C(=O)Nc2ccccc2OCCCC(=O)O)c1C [2(j), 4-[2-[4-(4-cyclobutylmethylbenzyloxy)-2,3-dimethylbenzoylamino]phenoxy]butanoic]
IC50: 2500 nM

Cc1cccc(COc2ccc(C(=O)Nc3ccccc3OCCCC(=O)O)c(C)c2C)c1 [2(c), 4-[2-[4-(3-methylbenzyloxy)-2,3-dimethylbenzoylamino]phenoxy]butanoic acid]
IC50: 1300 nM

CCCc1ccc(COc2ccc(C(=O)Nc3ccccc3[S+]([O-])CCCC(=O)O)c(C)c2C)cc1 (centres unmarked) [Example 3, 4-[2-[4-(4-propylbenzyloxy)-2,3-dimethylbenzoylamino]phenylsulfinyl]butanoic acid]
IC50: 700 nM

Cc1c(OC(C)c2ccc(CC(C)C)cc2)ccc(C(=O)Nc2ccccc2SCCCC(=O)O)c1C (centres unmarked) [2(dd), 4-[2-[4-[1-(4-isobutylphenyl)ethoxy]-2,3-dimethylbenzoylamino]phenylthio]butanoic acid]
IC50: 120 nM

CCCc1ccc(C(Oc2ccc(C(=O)Nc3ccccc3OCCCC(=O)O)c(C)c2C)c2ccc(CCC)cc2)cc1 [2(p), 4-[2-[4-[bis(4-propylphenyl)methoxy]-2,3-dimethylbenzoylamino]phenoxy]butanoic acid]
IC50: 11 nM

Cc1c(OCCCCCc2ccccc2)ccc(C(=O)Nc2ccccc2OCCCC(=O)O)c1C [2(n), 4-[2-[4-(5-phenylpentyloxy)-2,3-dimethylbenzoylamino]phenoxy]butanoic acid]
IC50: 950 nM

Cc1ccc(COc2ccc(C(=O)Nc3ccccc3OCCCC(=O)O)c(C)c2C)cc1 [2(d), 4-[2-[4-(4-methylbenzyloxy)-2,3-dimethylbenzoylamino]phenoxy]butanoic acid]
IC50: 980 nM

CC(C)Cc1ccc(COc2ccc(C(=O)Nc3ccccc3SCCCC(=O)O)c3c2CCCC3)cc1 [2(bb), 4-[2-[4-(4-isobutylbenzyloxy)-5,6,7,8-tetrahydronaphthalene-1-carbonylamino]phenylthio]butanoic acid]
IC50: 420 nM

CC(C)Cc1ccc(COc2ccc(C(=O)Nc3ccccc3OCCCC(=O)O)c3c2CCCC3)cc1 [2(z), 4-[2-[4-(4-isobutylbenzyloxy)-5,6,7,8-tetrahydronaphthalene-1-carbonylamino]phenoxy]butanoic acid]
IC50: 50 nM

Cc1c(OC(c2ccccc2)c2ccccc2)ccc(C(=O)Nc2ccccc2OCCCC(=O)O)c1C [2(q)]
IC50: 200 nM

CCc1ccc(COc2ccc(C(=O)Nc3ccccc3OCCCC(=O)O)c(C)c2C)cc1 [2(f), 4-[2-[4-(4-ethybenzyloxy)-2,3-dimethylbenzoylamino]phenoxy]butanoic acid]
IC50: 270 nM

CC(C)Cc1ccc(COc2ccc(C(=O)Nc3ccccc3OCCCC(=O)O)c3c2CCC3)cc1 [2(y), 4-[2-(7-(4-isobutylbenzyloxy)indane-4-carbonylamino]phenoxy]butanoic acid]
IC50: 410 nM

CC(C)Cc1ccc(COc2ccc(C(=O)Nc3ccccc3OCCCC(=O)O)c(Cl)c2Cl)cc1 [2(x), 4-[2-[4-(4-isobutylbenzyloxy)-2,3-dichlorobenzoylamino]phenoxy]butanoic acid]
IC50: 2800 nM

Cc1c(OC(C)c2ccc(CC(C)C)cc2)ccc(C(=O)Nc2ccccc2OCCCC(=O)O)c1C (centres unmarked) [2(o), 4-[2-[4-[1-(4-isobutylphenyl)ethoxy]-2,3-dimethylbenzoylamino]phenoxy]butanoic acid]
IC50: 5 nM

Cc1c(OCc2ccc(CC(C)C)cc2)ccc(C(=O)Nc2ccccc2OCCCC(=O)O)c1C [Example 2, 4-[2-[4-(4 isobutylbenzyloxy)-2 3-dimethylbenzoylamino]phenoxy]butanoic acid]
IC50: 120 nM

Cc1c(OCCCCc2ccccc2)ccc(C(=O)Nc2ccccc2OCCCC(=O)O)c1C [2(m), 4-[2-[4-(4-phenylbutoxy)-2,3-dimethylbenzoylamino]phenoxy]butanoic acid]
IC50: 750 nM

Cc1c(OCCCc2ccccc2)ccc(C(=O)Nc2ccccc2OCCCC(=O)O)c1C [2(l)]
IC50: 1000 nM

Cc1c(OCCc2ccccc2)ccc(C(=O)Nc2ccccc2OCCCC(=O)O)c1C [2(k), 4-[2-[4-(2-phenylethoxy)-2,3-dimethylbenzoylamino]phenoxy]butanoic acid]
IC50: 2600 nM

CCCc1ccc(COc2ccc(C(=O)Nc3ccccc3SCCCC(=O)O)c(C)c2C)cc1 [2(cc), 4-[2-[4-(4-propylbenzyloxy)-2,3-dimethylbenzoylamino)phenylthio]butanoic acid]
IC50: 380 nM

CCCc1ccc(COc2ccc(C(=O)Nc3ccccc3OCCCC(=O)O)c(C)c2C)cc1 [2(g), 4-[2-[4-(4-propylbenzyloxy)-2,3-dimethylbenzoylamino]phenoxy]butanoic acid]
IC50: 340 nM

CC(C)Cc1ccc(COc2ccc(C(=O)Nc3ccccc3OCCCC(=O)O)c3ccccc23)cc1 [2(aa), 4-[2-[4-[4-isobutylbenzyloxy)naphthalene-1-carbonylamino]phenoxy]butanoic acid]
IC50: 520 nM

Cc1c(OCc2ccc(C(C)C)cc2)ccc(C(=O)Nc2ccccc2OCCCC(=O)O)c1C [2(h), 4-[2-[4-(4-isopropylbenzyloxy)-2,3-dimethylbenzoylamino]phenoxy]butanoic acid]
IC50: 260 nM

Cc1cccc(C)c1COc1ccc(C(=O)Nc2ccccc2OCCCC(=O)O)c(C)c1C [2(e), 4-[2-[4-(2,6-dimethylbenzyloxy)-2,3-dimethylbenzoylamino]phenoxy]butanoic acid]
IC50: 1400 nM

Cc1c(OCc2ccccc2)ccc(C(=O)Nc2ccccc2OCCCC(=O)O)c1C [2(a), 4-[2-(4-benzyloxy-2,3-dimethylbenzoylamino)phenoxy]butanoic acid]
IC50: 2100 nM

Cc1c(OCc2ccc(Cl)cc2)ccc(C(=O)Nc2ccccc2OCCCC(=O)O)c1C [2(i), 4-[2-[4-(4-chlorobenzyloxy)-2,3-dimethylbenzoylamino]phenoxy]butanoic acid]
IC50: 2000 nM
